# Experimental data from patent publication US20230404969A1, “COMPOSITIONS AND METHOD FOR EFFECTIVE MANAGEMENT OF PERITONITIS” (priority 2022, published 2023).
# Key:
# CD4+ T cells = assay: Zymosan peritonitis chronic study: peripheral blood CD4+ T cell population (flow cytometry); type: in vivo, mouse; conditions: Withanone 2 mg/kg, day 36
# Description: (§1) Peritoneal inflammation was induced by Zymosan A (Sigma Chemical) (Masashi et al. Zymosan, but Not Lipopolysaccharide, Triggers Severe and Progressive Peritoneal Injury Accompanied by complement Activation in a Rat Peritonitis Model) was prepared freshly in sterile, 0.9% w/v saline, and 0.5 ml was injected i.p. from day 0 to Day 5. The lymphocyte population in the peripheral blood was determined with a flow cytometer. Cells were phenotyped by flow cytometry with the following primary antibodies: CD4 (FITC) and CD8 (PE). Cells were gated broadly on all live lymphocyte cells, with only debris and multiple cell clusters being excluded. Analysis of mean fluorescence intensity was done and percentage cell population was evaluated. The test drugs were administered for 30 days after the induction of peritonitis. […]
# Flow cytometry enables the characterization of cells and subcellular organelles on the basis of size and granularity and a number of different parameters defined by fluorescent probes. […] Fluorochrome labelled monoclonal antibodies directed against co-receptors CD4 and CD8 were used to quantify the lymphocyte subsets in a multiparametric flow cytometric assay. […]
# IL-6 = assay: Cytometric Bead Array of peritoneal fluid, chronic zymosan peritonitis: IL-6; type: in vivo, mouse; conditions: 2 mg/kg, vs Zymosan control
# Description: as §1, with “evaluated.” for “evaluated. The test drugs were administered for 30 days after the induction of peritonitis.”
# The Cytometric Bead Array (Mouse Inflammation kit) was used to study cytokines in peritoneal fluid. […] Briefly, a mixture of 6 capture bead populations (50 μl) with distinct fluorescence intensities (detected in FL3) coated with antibodies specific for the above cytokines was mixed with each sample/standard (50 μl). […] Following acquisition of data by two colour cytometric analysis, the sample results were analysed using CBA software (BD Biosciences). […] Individual cytokine concentration ratios were indicated by their fluorescent intensities and was determined by interpolation from the corresponding standard curve.
# E. Coli (Gram-negative) = assay: Bacterial translocation from the gut into organs: E. coli; type: in vivo; conditions: Withanone 2 mg/kg; positive/6 mice
# Description: (§2) Peritoneal inflammation was induced by Zymosan A (Sigma Chemical) (Masashi et al. Zymosan, but Not Lipopolysaccharide, Triggers Severe and Progressive Peritoneal Injury Accompanied by complement Activation in a Rat Peritonitis Model) was prepared freshly in sterile, 0.9% w/v saline, and 0.5 ml was injected i.p. from day 0 to Day 5. The lymphocyte population in the peripheral blood was determined with a flow cytometer. Cells were phenotyped by flow cytometry with the following primary antibodies: CD4 (FITC) and CD8 (PE). Cells were gated broadly on all live lymphocyte cells, with only debris and multiple cell clusters being excluded. Analysis of mean fluorescence intensity was done and percentage cell population was evaluated. The test drugs were administered for 30 days after the induction of peritonitis. On 36th day the peritoneal cavity was lavaged with 1.5 ml saline, and after a 30-s gentle manual massage, 0.5 ml exudate was retrieved, centrifuged at 3000 g for 3 min, and frozen at […] prior to cytokine and chemotactic-factor assessment.
# (§3) Intestine serves as a barrier in preventing gut bacteria and/or endotoxin from spreading to organs and tissues. It is also known that bacterial translocation occurs in critically ill or immunocompromised patients, and the physical disruption of mucosal barrier in vivo rodent models seem to be a key factor Tor translocation (Deitch et al. Effect of hemorrhagic shock on bacterial translocation, intestinal morphology, and intestinal permeability in conventional and antibiotic-decontaminated rats; Critical Care Medicine; 1990 18(5)). Bacterial translocation from the gut into the peritoneal cavity and organs was analyzed. The mesenteric lymph nodes, liver, and spleen of mice, study group of 30, were removed using sterile instruments. The organs were then homogenized in 1 ml of sterile cooked meat broth and 50 μl of organ homogenate was spread on blood agar plates to detect aerobic bacteria and Eosin Methylene blue agar plates to detect specially for E. coli. These plates were then incubated at 37° C. for 2 days. […]
# [1] = test system: Lactobacillus acidophilus (Gram positive); assay: Bacterial translocation from the gut into organs: L. acidophilus; type: in vivo; conditions: Withanone 2 mg/kg; positive/6 mice
# Description: as §2, §3
smiles,measurement,setting,value
CC1=C(C)C(=O)O[C@@H]([C@@H](C)[C@@]2(O)CC[C@H]3[C@@H]4[C@@H]5O[C@@H]5[C@@]5(O)CC=CC(=O)[C@]5(C)[C@H]4CC[C@@]32C)C1 [Withanone],Inhibition of CD4+ compared to T cell population of Zymosan control,CD4+ T cells,46%
same,Inhibition of IL-6,IL-6,61%
same,"Bacterial translocation, Liver, E. coli",E. Coli (Gram-negative),1/6
same,"Bacterial translocation, Mesenteric Lymph Nodes, E. coli",E. Coli (Gram-negative),2/6
same,"Bacterial translocation, Spleen, E. coli",E. Coli (Gram-negative),1/6
same,"Bacterial translocation, Liver, L. acidophilus",[1],1/6
same,"Bacterial translocation, Mesenteric Lymph Nodes, L. acidophilus",[1],1/6
same,"Bacterial translocation, Spleen, L. acidophilus",[1],1/6
